Reference: patent publication US6887886B2, “Therapeutic compositions comprising excess enantiomer” (Pfizer Inc., priority 2000, dated 2005)
“And” between values parts separate entries of the source, which are not always exact repeats. Equal entries are not always repeated.

Assays:
canine myocardium = assay: cardiac oxygen consumption in canine myocardium in vitro; type: cell-based
[1] = test system: vascular smooth muscle cell; conditions: in vitro; cited from earlier work
[2] = test system: hypoxic Langendorff mouse hearts; assay: hypoxic Langendorff mouse hearts perfused with enantiomer: myocardial glucose uptake and time to cessation of beating; conditions: hypoxic heart, 10^−7M solution
[3] = test system: canine coronary microvessels, epicardial coronary artery and aorta; assay: nitrite production (vascular NO release) in canine coronary microvessels, epicardial coronary artery and aorta; type: cell-based
calcium channel = conditions: cited from earlier work
[4] = in vivo; cited from earlier work
[5] = identical study, increasing concentrations

CCOC(=O)C1=C(COCCN)NC(C)=C(C(=O)OC)[C@H]1c1ccccc1Cl (single isomer, unassigned) [R(+) enantiomer]
effect of NO synthase inhibitor L-NAME on the reduction in oxygen consumption (canine myocardium): wholly or partly blocked
reduction in oxygen consumption (canine myocardium; enantiomer concentration of 10^−5M): about 30%
PDGF-induced vascular smooth muscle cell migration [1]: inhibit
increase in survival time [2]: three-fold
reduction in myocardial glucose uptake [2]: over 50%
time to cessation of beating (TCB) ([2]; untreated 9 minutes): about 33 minutes
myocardial glucose uptake (MGU) ([2]; untreated hypoxic 0.57, normoxic 0.36): 0.27 μg/min.mg
effect of NO synthase inhibitor L-NAME on the increase in nitrite production [3]: wholly or partly blocked
concentration-dependent increase in nitrite production, up to ([3]; enantiomer concentration of 10^−9M): about 65 pmol/mg
free concentration at which maximum NO release as measured by nitrite production was observed ([3]; free concentration): 10^−9 M and 0.4 ng/ml

CCOC(=O)C1=C(COCCN)NC(C)=C(C(=O)OC)[C@@H]1c1ccccc1Cl (single isomer, unassigned) [S(−) enantiomer]
effect of NO synthase inhibitor L-NAME on the reduction in oxygen consumption (canine myocardium): not blocked
reduction in oxygen consumption (in words) (canine myocardium; [5]): a reduction in oxygen consumption was observed
nitrite production (in words) [3, 5]: no evidence of nitrite production
calcium channel-blocking activity of the racemate resides in (calcium channel): largely, but not exclusively
dose in excess of which adverse effects arise (marked and sustained fall in blood pressure, reduced coronary blood flow) [4]: > 0.5 mg/kg
